Source: PubChem BioAssay (NCI)
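Grown in 96-well plates, cells were treated for 48 hours with each compound at five concentrations. Insufficient inhibition: endpoint recorded as highest concentration tested. The concentration for full growth arrest is given as TGI.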

What was measured:
Experiment in all cases: NCI anticancer screen, dose series, 48 h
MALME-3M melanoma = tested on: MALME-3M melanoma
SF-268 CNS = tested on: SF-268 CNS
SW-620 colon = tested on: SW-620 colon
DMS 114 small cell lung = tested on: DMS 114 small cell lung
SK-MEL-2 melanoma = tested on: SK-MEL-2 melanoma
IGROV1 ovarian = tested on: IGROV1 ovarian
OVCAR-3 ovarian = tested on: OVCAR-3 ovarian
OVCAR-4 ovarian = tested on: OVCAR-4 ovarian
786-0 renal = tested on: 786-0 renal
OVCAR-5 ovarian = tested on: OVCAR-5 ovarian
TK-10 renal = tested on: TK-10 renal
UO-31 renal = tested on: UO-31 renal
A498 renal = tested on: A498 renal
LOX IMVI melanoma = tested on: LOX IMVI melanoma
SN12C renal = tested on: SN12C renal
NCI-H522 lung = tested on: NCI-H522 lung
SNB-19 CNS = tested on: SNB-19 CNS
HCC-2998 colon = tested on: HCC-2998 colon
SF-539 CNS = tested on: SF-539 CNS
HT29 colon = tested on: HT29 colon
NCI-H460 lung = tested on: NCI-H460 lung
A549 NSCLC = tested on: A549 NSCLC
SK-OV-3 ovarian = tested on: SK-OV-3 ovarian
HOP-62 NSCLC = tested on: HOP-62 NSCLC
MOLT-4 leukemia = tested on: MOLT-4 leukemia
CCRF-CEM leukemia = tested on: CCRF-CEM leukemia
M14 melanoma = tested on: M14 melanoma
KM12 colon = tested on: KM12 colon
NCI-H23 lung = tested on: NCI-H23 lung
K-562 leukemia = tested on: K-562 leukemia
RXF 393 renal = tested on: RXF 393 renal
OVCAR-8 ovarian = tested on: OVCAR-8 ovarian
KM20L2 colon = tested on: KM20L2 colon
DMS 273 small cell lung = tested on: DMS 273 small cell lung
NCI-H226 lung = tested on: NCI-H226 lung
UACC-257 melanoma = tested on: UACC-257 melanoma
CAKI-1 renal = tested on: CAKI-1 renal
HL-60(TB) leukemia = tested on: HL-60(TB) leukemia
SNB-75 CNS = tested on: SNB-75 CNS
EKVX NSCLC = tested on: EKVX NSCLC
M19-MEL melanoma = tested on: M19-MEL melanoma
RPMI-8226 leukemia = tested on: RPMI-8226 leukemia
COLO 205 colon = tested on: COLO 205 colon
SNB-78 CNS = tested on: SNB-78 CNS
U251 CNS = tested on: U251 CNS
HOP-92 NSCLC = tested on: HOP-92 NSCLC
SR leukemia = tested on: SR leukemia
SF-295 CNS = tested on: SF-295 CNS
ACHN renal = tested on: ACHN renal
UACC-62 melanoma = tested on: UACC-62 melanoma
HCT-116 colon = tested on: HCT-116 colon
SK-MEL-5 melanoma = tested on: SK-MEL-5 melanoma
HCT-15 colon = tested on: HCT-15 colon
SK-MEL-28 melanoma = tested on: SK-MEL-28 melanoma
DLD-1 colon = tested on: DLD-1 colon
LXFL 529 NSCLC = tested on: LXFL 529 NSCLC
XF 498 CNS = tested on: XF 498 CNS

Measured: TGI

N#CC1(N2CCCC2)CCC2(CC1)OCCO2
> 10 µM: DMS 273 small cell lung | M19-MEL melanoma | COLO 205 colon
not listed: DLD-1 colon | LXFL 529 NSCLC | XF 498 CNS
> 100 µM: all other assays above

Nc1nc(SCCNC(=O)CCc2ccc(O)c(I)c2)nc2c1ncn2C1OC(CO)C(O)C1O (stereo not given)
not listed: 786-0 renal | UO-31 renal | LOX IMVI melanoma | CAKI-1 renal | RPMI-8226 leukemia
> 100 µM: all other assays above

COC(=O)N/N=C(\C)CC(=O)Nc1cccc([N+](=O)[O-])c1
not listed: OVCAR-4 ovarian | A498 renal | SN12C renal | SNB-19 CNS | CAKI-1 renal | SR leukemia | ACHN renal | HCT-15 colon
> 100 µM: all other assays above
